Measured values taken from US20180207228A1, “PEPTIDE COMBINATIONS AND USES THEREOF FOR TREATING GRASS ALLERGY” (ALK-Abelló A/S, priority 2015, published 2018).
Where no end group is shown, it is not given here.

Columns and labels:
Type in all cases: cell-based, human
[1] = system: allergen specific T cells; assay: T cell proliferation assay (72 h) on donor derived T cell lines (TCL02/TCL03); conditions: for Proliferation % donor coverage (TCL-02 DK1): T cell lines TCL-02 DK1, 30 donors, hit criteria SI>=2, CPM>=1000; for Proliferation strength (TCL-02 DK1): T cell lines TCL-02 DK1, strength of response (average relative magnitude)
Summary of the method: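 CD8-depleted PBMCs from grass-allergic donors stimulated with natural grass allergen mix (nPhl p 1 0.5 μg/ml) to raise T cell lines; restimulated with irradiated APCs, allergens or PHA-P (0.5 μg/ml) plus rIL-2. Proliferation to overlapping 20-mer and selected 15-mer grass peptides tested with TCL02 (day 24) or TCL03 (day 34).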

[2] = system: release of IL-5 upon T cell activation; assay: Fluorospot assay, IL-5 release (DK1-TCL01, US1-TCL01); conditions: head prints TCL-02 DK1; text: 25 TCL-01 DK1 lines
Summary of the method: (§1)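 Grass-allergic donors' CD8-depleted PBMCs were expanded 14 days with natural grass allergens plus IL-2 to give TCL01 lines. These were incubated 20 h at 37° C with single peptides or peptide mixes at 2 μg/ml, and spot-forming cells were counted. Hit: SI≥2, p≤0.05, Poisson ≤0.05, ≥20 SFC/10^6 cells.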

[3] = system: release of IFN-γ upon T cell activation; assay: Fluorospot assay, IFN-γ release (DK1-TCL01, US1-TCL01); conditions: head prints TCL-02 DK1; 17 TCL-01 DK1 lines
Summary of the method: as §1

Molecule | Proliferation % donor coverage (TCL-02 DK1) [1] [%] | Proliferation strength (TCL-02 DK1) [1] | IL-5-Fluorospotr % donor coverage (TCL-02 DK1) [2] [%] | IFN-gamma % donor coverage (TCL-02 DK1) [3] [%]
GQEDKLRKAGELTLQFRRVK-OH [compound 101] | 13.33 | 1.20 | 4.00 | 0.00
CC[C@H](C)[C@H](NC(=O)[C@H](CC(N)=O)NC(=O)[C@H](CC(C)C)NC(=O)[C@@H](NC(=O)[C@H](CC(C)C)NC(=O)[C@@H](NC(=O)[C@H](CCCCN)NC(=O)[C@H](C)NC(=O)[C@H](CC(=O)O)NC(=O)[C@@H](N)CO)[C@@H](C)O)C(C)C)C(=O)N[C@@H](CCCCN)C(=O)N[C@@H](Cc1ccc(O)cc1)C(=O)N[C@H](C(=O)N[C@@H](CCCNC(=N)N)C(=O)N1CCC[C@H]1C(=O)O)[C@@H](C)O [compound 125] | 31.03 | 6.30 | 12.50 | 4.00
GSNEKHLAVLVKYEGDTMAE-OH [compound 31] | 10.00 | 1.40 | 0.00 | 0.00
YIITPTNVSHIQSAVVSGRR-OH [compound 46] | 27.00 | 1.00 | 0.00 | 0.00
KPPFSGMTGSGNTPI-OH [compound 122] | 10.34 | 0.60 | 4.17 | 0.00
TPFPHRKGVLFNIQYVNYWF-OH [compound 50] | 43.33 | 6.70 | 28.00 | 8.00
AEVELRQHGSEEWEPLTKKG-OH [compound 43] | 3.33 | 0.70 | 4.00 | 0.00
IKYTRPGDSLAEVELRQHGS-OH [compound 42] | 16.67 | 0.80 | 0.00 | 0.00
YHFDLSGHAFGAMAKKGDEQ-OH [compound 5] | 46.67 | 7.80 | 24.00 | 15.00
AVKPAAEEVKVIPAGELQVI-OH [compound 81] | 20.00 | 2.60 | 0.00 | 0.00
TPDKLTGPFTVRYTTEGGTK-OH [compound 26] | 13.33 | 2.00 | 24.00 | 4.00
WGAIWRIDTPDKLTGPFTVR-OH [compound 11] | 46.67 | 4.80 | 24.00 | 8.00
RFLTEKGMKNVFDDVVPEKY-OH [compound 34] | 6.67 | 0.60 | 4.00 | 0.00
EAKYDAYVATLSEALRIIAG-OH [compound 66] | 46.67 | 11.20 | 20.83 | 0.00
CC[C@H](C)[C@H](NC(=O)[C@H](CCC(=O)O)NC(=O)[C@H](Cc1c[nH]c2ccccc12)NC(=O)[C@@H](NC(=O)CNC(=O)[C@@H](N)CC(=O)O)C(C)C)C(=O)N[C@@H](CCCCN)C(=O)N[C@@H](CO)C(=O)N[C@@H](CC(=O)O)C(=O)N[C@@H](CCCCN)C(=O)N1CCC[C@H]1C(=O)N[C@@H](CC(C)C)C(=O)N[C@@H](CCCCN)C(=O)NCC(=O)N1CCC[C@H]1C(=O)O [compound 130] | 10.34 | 1.80 | 12.50 | 4.00
PFDGMTASGNEPIFKDGLGS-OH [compound 94] | 16.67 | 2.90 | 4.00 | 4.00
KVPPGPNITATYGDKWLDAK-OH [compound 15] | 3.33 | 0.50 | 0.00 | 0.00
GGASGYKDVDKPPFSGMTGS-OH [compound 18] | 16.67 | 2.30 | 0.00 | 0.00
AGYTPAAPAGAEPAGKATTE-OH [compound 61] | 26.67 | 3.40 | 16.00 | 0.00
VFDDVVPEKYTIGATYAPEE-OH [compound 35] | 13.33 | 0.70 | 0.00 | 0.00
AAGVPPADKYRTFVATFGAA-OH [compound 75] | 10.00 | 1.10 | 0.00 | 0.00
RIIAGTLEVHAVKPAAEEVK-OH [compound 80] | 30.00 | 4.40 | 0.00 | 0.00
CC[C@H](C)[C@H](NC(=O)[C@H](CCCCN)NC(=O)[C@H](CCC(=O)O)NC(=O)[C@@H](NC(=O)[C@@H](N)CC(C)C)[C@@H](C)CC)C(=O)N[C@@H](CC(N)=O)C(=O)N[C@@H](C)C(=O)NCC(=O)N[C@@H](Cc1ccccc1)C(=O)N[C@@H](CCCCN)C(=O)N[C@@H](C)C(=O)N[C@@H](C)C(=O)N[C@H](C(=O)N[C@@H](C)C(=O)N[C@@H](C)C(=O)O)C(C)C [compound 123] | 53.33 | 7.90 | 12.50 | 0.00
CC[C@H](C)[C@H](NC(=O)[C@H](CCCCN)NC(=O)[C@@H](NC(=O)[C@H](CC(C)C)NC(=O)[C@@H](NC(=O)[C@@H]1CCCN1C(=O)[C@H](CCC(=O)O)NC(=O)CNC(=O)[C@H](CO)NC(=O)[C@H](CO)NC(=O)[C@H](CCC(=O)O)NC(=O)[C@@H](NC(=O)[C@@H]1CCCN1)C(C)C)C(C)C)C(C)C)C(=O)N[C@H](C(=O)N[C@@H](CC(=O)O)C(=O)N[C@@H](CCCCN)C(=O)N[C@@H](CC(N)=O)C(=O)N[C@@H](Cc1ccc(O)cc1)C(=O)N[C@@H](CCC(=O)O)C(=O)N[C@@H](Cc1c[nH]cn1)C(=O)O)[C@@H](C)O [compound 97] | 10.00 | 0.70 | 4.00 | 8.00
GFKAALAAAAGVPPADKYRT-OH [compound 63] | 26.67 | 4.10 | 12.00 | 0.00
VVAVDIKEKGKDKWIELKES-OH [compound 25] | 20.00 | 1.10 | 4.00 | 8.00
TDDNEEPIAPYHFDLSGHAF-OH [compound 4] | 40.00 | 6.40 | 28.00 | 4.00
